Experimental data from patent US10590086B2, “Pharmaceutical compound” (IOmet Pharma Ltd., priority 2014, dated 2020).

Experiments:
TDO [1] = molecular target: T1, TDO (Homo sapiens, UniProt P48775); assay: hTDO biochemical coupled assay; conditions: 330 μM L-tryptophan, read-out: hTDO biochemical assay pIC50 (converted)
Text: (§2) Two different assays were employed: 1. a cell-based assay for detecting the effect of test compounds on kynurenine production in two different cancer cell types. This assay utilised cancer cells which expressed either TDO or IDO and as such was used as a means of testing compound activity at these two enzymes in a cell-based context. 2. a TDO and IDO biochemical coupled assay which utilised recombinantly produced and purified TDO and IDO enzymes in combination with the enzyme formamidase. This coupled enzyme system allowed conversion of N-formylkynurenine produced by TDO or IDO activity to kynurenine which was then quantified by fluorescence following addition of Erhlich's Reagent The protocols for these are set out below.

TDO [2] = molecular target: T1, TDO; assay: A172 kynurenine cell-based assay; set-up: This assay utilised cancer cells which expressed either TDO or IDO; endogenous in cells; host or cells: A172 (human glioblastoma); conditions: A172 human glioblastoma cells, 48 hours, read-out: A172 Kynurenine cell based assay pIC50 (converted)
Procedure, shortened: (§1)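 Readout: […] of cell supernatant 5 min after Erhlich's reagent, reporting kynurenine. Cells: A172 (TDO) or SKOV3 + 500 ng/ml IFN-γ (IDO), 48 h, 37° C, ± compound. Medium: phenol red-free RPMI, 10% FCS, 2 mM L-glutamine, 500 μM L-tryptophan.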

IDO [3] = molecular target: T2, IDO (Homo sapiens, UniProt P14902); assay: SKOV3 kynurenine cell-based assay (IDO induced by IFN-γ); set-up: IDO expression was induced in the SKOV3 cells by the addition of 500 ng/ml IFN-γ; endogenous in cells; host or cells: SKOV3 (human ovarian adenocarcinoma), induced with IFN-γ; conditions: 48 hours, read-out: SKOV3 Kynurenine cell based assay pIC50 (converted)
T2 sequence (P14902 whole entry): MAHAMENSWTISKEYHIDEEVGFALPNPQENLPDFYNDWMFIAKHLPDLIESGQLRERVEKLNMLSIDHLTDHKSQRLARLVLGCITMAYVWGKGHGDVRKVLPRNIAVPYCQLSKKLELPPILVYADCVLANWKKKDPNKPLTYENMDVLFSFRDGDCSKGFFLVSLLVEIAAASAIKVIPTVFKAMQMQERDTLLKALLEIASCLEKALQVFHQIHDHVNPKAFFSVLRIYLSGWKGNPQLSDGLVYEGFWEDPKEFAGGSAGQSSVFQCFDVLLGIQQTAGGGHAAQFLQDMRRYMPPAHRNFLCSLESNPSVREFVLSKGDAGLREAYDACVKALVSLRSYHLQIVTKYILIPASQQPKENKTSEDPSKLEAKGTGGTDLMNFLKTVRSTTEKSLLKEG
Procedure, shortened: as §1

IDO [4] = molecular target: T2, IDO; assay: hIDO biochemical coupled assay; conditions: 45 μM L-tryptophan, read-out: hIDO biochemical assay pIC50 (converted)
Text: as §2

[5] = SKOV3 cells, IDO induced by 500 ng/ml IFN-γ
[6] = SKOV3 human ovarian adenocarcinoma cells, 500 ng/ml IFN-γ, 500 μM L-tryptophan

T1 sequence (P48775 whole entry): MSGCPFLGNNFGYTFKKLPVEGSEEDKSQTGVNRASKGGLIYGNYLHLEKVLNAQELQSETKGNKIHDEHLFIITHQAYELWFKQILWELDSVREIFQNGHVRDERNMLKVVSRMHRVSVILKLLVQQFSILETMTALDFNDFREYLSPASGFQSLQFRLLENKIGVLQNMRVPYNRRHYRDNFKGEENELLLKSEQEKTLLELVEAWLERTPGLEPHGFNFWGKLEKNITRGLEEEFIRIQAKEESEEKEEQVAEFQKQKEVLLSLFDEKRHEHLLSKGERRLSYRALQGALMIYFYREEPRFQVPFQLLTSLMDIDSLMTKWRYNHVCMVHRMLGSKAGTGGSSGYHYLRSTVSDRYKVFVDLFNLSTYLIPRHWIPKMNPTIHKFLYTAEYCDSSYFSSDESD

Compound | IC50 (TDO [1]; 17 minutes, room temperature) [µM] | IC50 (TDO [1]) [µM] | IC50 (TDO [2]; 500 μM L-tryptophan) [µM] | IC50 (TDO [2]) [µM] | IC50 (IDO [3]; [5]) [µM] | IC50 (IDO [3]; [6]) [µM] | IC50 (IDO [4]; 17 minutes, room temperature) [µM] | IC50 (IDO [4]) [µM]
O=C1N[C@H]2CC[C@@H]1CN(c1cc(Cl)cc3[nH]ncc13)C2 [Compound 393, (1R,5S)-3-(6-chloro-1H-indazol-4-yl)-3,6-diazabicyclo[3.2.2]nonan-7-one] | < 3.16 | 0.245 | < 3.16 | 0.055 | 38 | 32.4 to 100 | 32.4 to 100 | 51.3
O=C1CCC2(CCN1)CCN(c1cc(Cl)cc3[nH]ncc13)CC2 [Compound 394] | < 3.16 | – | < 3.16 | – | – | < 3.16 | 3.24 to 31.6 | –
CS(=O)(=O)N1CC2(CN(c3cc(Cl)cc4[nH]ncc34)C2)C1 [Compound 395] | < 3.16 | – | < 3.16 | – | – | < 3.16 | > 100 | –
CC(C)Cn1cc(-c2cc(Cl)cc3[nH]ncc23)cn1 [Compound 396, 6-chloro-4-(1-isobutyl-1H-pyrazol-4-yl)-1H-indazole] | 3.24 to 31.6 | 3.63 | < 3.16 | 0.832 | > 10 | > 100 | > 100 | > 257
O=C1NCNC12CCN(c1cc(Cl)cc3[nH]ncc13)CC2 [Compound 397] | < 3.16 | – | < 3.16 | – | – | > 100 | > 100 | –
CS(=O)(=O)N1CCOC2(CCN(c3cc(Cl)cc4[nH]ncc34)CC2)C1 [Compound 398] | < 3.16 | – | < 3.16 | – | – | > 100 | > 100 | –
Clc1cc(-c2cnn(-c3ccccc3)c2)c2cn[nH]c2c1 [Compound 399] | > 100 | – | < 3.16 | – | – | > 100 | > 100 | –
CC(=O)N1CCC(c2cc(Cl)cc3[nH]ncc23)CC1(C)C (stereo not shown) [Compound 400] | < 3.16 | – | < 3.16 | – | – | < 3.16 | < 3.16 | –
CNC(=O)CN1CCC(c2cc(Cl)cc3[nH]ncc23)CC1 [Compound 401] | < 3.16 | – | < 3.16 | – | – | > 100 | > 100 | –
CC(=O)N1CC2(C1)CN(c1cc(Cl)cc3[nH]ncc13)C2 [Compound 402] | < 3.16 | – | < 3.16 | – | – | < 3.16 | 32.4 to 100 | –
CS(=O)(=O)NCCN1CCN(c2cc(Cl)cc3[nH]ncc23)CC1 [Compound 403] | < 3.16 | – | < 3.16 | – | – | > 100 | > 100 | –
O=C1Nc2ccccc2NC12CCN(c1cc(Cl)cc3[nH]ncc13)CC2 [Compound 404] | < 3.16 | – | 3.24 to 31.6 | – | – | < 3.16 | 32.4 to 100 | –
O=C1NC2(CCN(c3cc(Cl)cc4[nH]ncc34)CC2)C(=O)N1CC(F)(F)F [Compound 405] | < 3.16 | – | < 3.16 | – | – | < 3.16 | < 3.16 | –
O=C1NC2(CCN(c3cc(Br)cc4[nH]ncc34)CC2)C(=O)N1Cc1ccccc1 [Compound 406] | < 3.16 | – | < 3.16 | – | – | < 3.16 | < 3.16 | –
O=C1NC2(CCN(c3cc(Cl)cc4[nH]ncc34)CC2)C(=O)N1Cc1ncco1 [Compound 407] | < 3.16 | – | < 3.16 | – | – | < 3.16 | < 3.16 | –
Cn1ccnc1CN1C(=O)NC2(CCN(c3cc(Cl)cc4[nH]ncc34)CC2)C1=O [Compound 408] | < 3.16 | – | < 3.16 | – | – | < 3.16 | < 3.16 | –
CC(=O)N1CCOC2(CCN(c3cc(Cl)cc4[nH]ncc34)CC2)C1 [Compound 409] | < 3.16 | – | 3.24 to 31.6 | – | – | > 100 | 32.4 to 100 | –
O=C1NCCN1C1CCN(c2cc(Cl)cc3[nH]ncc23)CC1 [Compound 410] | < 3.16 | – | < 3.16 | – | – | 3.24 to 31.6 | > 100 | –
CN1CCN(C2CCN(c3cc(Cl)cc4[nH]ncc34)CC2)C1=O [Compound 411] | < 3.16 | – | < 3.16 | – | – | < 3.16 | > 100 | –
CC(=O)NCCN1C(=O)NC2(CCN(c3cc(Cl)cc4[nH]ncc34)CC2)C1=O [Compound 412] | < 3.16 | – | < 3.16 | – | – | > 100 | < 3.16 | –
CNC(=O)CN1CCN(c2cc(Cl)cc3[nH]ncc23)CC1(C)C [Compound 413] | < 3.16 | – | < 3.16 | – | – | 3.24 to 31.6 | < 3.16 | –
COC(=O)CN1CCN(c2cc(Cl)cc3[nH]ncc23)CC1(C)C [Compound 414] | < 3.16 | – | < 3.16 | – | – | > 100 | 32.4 to 100 | –

Compound | IC50 (TDO [1]; 17 minutes, room temperature) [µM] | IC50 (TDO [1]) [µM] | IC50 (TDO [2]; 500 μM L-tryptophan) [µM] | IC50 (TDO [2]) [µM] | IC50 (IDO [3]; [5]) [µM] | IC50 (IDO [3]; [6]) [µM] | IC50 (IDO [4]; 17 minutes, room temperature) [µM] | IC50 (IDO [4]) [µM]
CS(=O)(=O)NCCN1C(=O)NC2(CCN(c3cc(Cl)cc4[nH]ncc34)CC2)C1=O [Compound 416] | < 3.16 | – | < 3.16 | – | – | 3.24 to 31.6 | < 3.16 | –
Clc1cc(N2CCc3cn[nH]c3C2)c2cn[nH]c2c1 [Compound 417] | < 3.16 | – | < 3.16 | – | – | > 100 | > 100 | –
O[C@H]1CCCC[C@@H]1c1cc(Cl)cc2[nH]ncc12 [Compound 418] | < 3.16 | – | < 3.16 | – | – | > 100 | > 100 | –
O[C@@H]1CCCC[C@@H]1c1cc(Cl)cc2[nH]ncc12 [Compound 419] | < 3.16 | – | < 3.16 | – | – | > 100 | > 100 | –
CC1(C)CN(c2cc(Cl)cc3[nH]ncc23)CCN1CCNS(C)(=O)=O [Compound 420] | < 3.16 | – | < 3.16 | – | – | > 100 | 3.24 to 31.6 | –
CC(=O)NCCN1CCN(c2cc(Cl)cc3[nH]ncc23)CC1(C)C [Compound 421] | < 3.16 | – | < 3.16 | – | – | > 100 | 3.24 to 31.6 | –
O=C1N(c2ccccc2)CNC12CCN(c1cc(Cl)cc3[nH]ncc13)CC2 [Compound 422] | < 3.16 | – | < 3.16 | – | – | < 3.16 | 3.24 to 31.6 | –
CCS(=O)(=O)N1CCC(c2cc(Cl)cc3[nH]ncc23)CC1 [Compound 423] | < 3.16 | – | < 3.16 | – | – | 3.24 to 31.6 | < 3.16 | –
CC1(C)CN(c2cc(Cl)cc3[nH]ncc23)CCC12NC(=O)NC2=O (stereo not shown) [Compound 424, 8-(6-chloro-1H-indazol-4-yl)-6,6-dimethyl-1,3,8-triazaspiro[4.5]decane-2,4-dione] | < 3.16 | 0.24 | < 3.16 | 0.0759 | 0.145 | < 3.16 | < 3.16 | 0.347
Cc1nc2c(o1)CN(c1cc(Cl)cc3[nH]ncc13)CC2(C)C [Compound 425] | < 3.16 | – | < 3.16 | – | – | > 100 | > 100 | –
Clc1cc(C2CCOCC2)c2cn[nH]c2c1 [Compound 426] | < 3.16 | – | < 3.16 | – | – | > 100 | 3.24 to 31.6 | –
CC1(C)CCC(O)(c2cc(Cl)cc3[nH]ncc23)CC1 [Compound 427] | 3.24 to 31.6 | – | < 3.16 | – | – | > 100 | > 100 | –
OC1(c2cc(Cl)cc3[nH]ncc23)CCC(F)(F)CC1 [Compound 428] | < 3.16 | – | < 3.16 | – | – | 3.24 to 31.6 | 3.24 to 31.6 | –
Clc1cc(N2CCC(c3ncco3)CC2)c2cn[nH]c2c1 [Compound 429] | < 3.16 | – | < 3.16 | – | – | 3.24 to 31.6 | 3.24 to 31.6 | –
Nc1ccnn1C1CCN(c2cc(Cl)cc3[nH]ncc23)CC1 [Compound 430] | < 3.16 | – | 3.24 to 31.6 | – | – | > 100 | < 3.16 | –
CS(=O)(=O)NC1CN(c2cc(Cl)cc3[nH]ncc23)C1 [Compound 431] | < 3.16 | – | < 3.16 | – | – | > 100 | < 3.16 | –
Cn1ncc2c1CN(c1cc(Cl)cc3[nH]ncc13)CC2 [Compound 432] | < 3.16 | – | < 3.16 | – | – | > 100 | 3.24 to 31.6 | –
Cn1cc2c(n1)CN(c1cc(Cl)cc3[nH]ncc13)CC2 [Compound 433] | < 3.16 | – | 3.24 to 31.6 | – | – | > 100 | > 100 | –
Cc1nc2c(o1)CN(c1cc(C(F)(F)F)cc3[nH]ncc13)CC2(C)C [Compound 434] | < 3.16 | – | < 3.16 | – | – | > 100 | > 100 | –
CN1C(=O)[C@@H]2CC[C@H]1CN(c1cc(Cl)cc3[nH]ncc13)C2 [Compound 435] | < 3.16 | – | < 3.16 | – | – | > 100 | 3.24 to 31.6 | –
Cn1ccnc1N1CCN(c2cc(Cl)cc3[nH]ncc23)CC1 [Compound 436] | < 3.16 | – | < 3.16 | – | – | > 100 | > 100 | –
